# Data: patent publication US4931444A, “5-lipoxygenase inhibiting 4-(4-phenyl-1-piperazinyl)phenols” (Janssen Pharmaceutica N.V., priority 1989, dated 1990)
# What was measured:
# [1] = test system: Dextran-induced edema formation in the ears of mice; assay: Inhibition of Dextran-induced edema formation in the ears of mice; format: in vivo, male Swiss mice; conditions: Mus musculus, po, Column B, at 10 mg/kg body weight, 1 h before dextran, read-out: inhibition of Dextran-induced blueing of the ears of mice, % inhibition
# Excerpt: Inhibition of Dextran-induced edema formation in the ears of mice.
# Intravenous injection of Dextran T500® (Pharmacia) and pontamine sky-blue dye into mice results in increased vascular permeability and edema formation, characterized by an intense blueing of the ears. Determination of the amount of extravasated dye is presumed to yield a quantitative measure of the 5-lipoxygenase inhibiting activity of the test compounds (Drug. Dev. Res. 8, 213-218, 1986). Unfasted male Swiss mice weighing 24-26 g were used in the experiments which were performed between 13.00 pm and 17.00 pm at an ambient temperature of 22±1° C. The mice were treated orally with a test compound of formula (I) dissolved in a volume of […] of either polyethyleneglycol (PEG 200) or hydroxypropyl cyclodextrine at doses varying between 1.25 and 40 mg per kg bodyweight. In control experiments the mice were administered an identical amount of solvent alone. One hour after treatment there was injected intravenously an isotonic saline solution containing 60 mg/ml Dextran T500® and 13 mg/ml pontamine sky-blue dye in a volume of 0.1 ml per 10 g bodyweight. One hour and forty-five minutes later the animals were sacrificed by ether and their ears were removed. Extraction and quantification of the extravasated dye were performed as described (Drug Dev. Res. 8, 213-218, 1986). The calculated percentage of inhibition of ear blueing upon administration of a compound of formula (I) at a dose of 10 mg/kg bodyweight is shown in the second column of table 12.
# 5-lipoxygenase = molecular target: T1, 5-lipoxygenase (Rattus norvegicus, UniProt P12527); assay: Arachidonate 5-lipoxygenase inhibition in Rat Basophilic Leukemia Cells Supernatant; format: biochemical; set-up: dose or concentration left out as unconfirmed; conditions: Column A; 5-HPETE and LTB4 formation; read-out: 5-lipoxygenase inhibition in RBL cells supernatant, % inhibition
# T1 construct: The supernatant, aliquoted and stored at -70° C., was used as the source of 5-lipoxygenase activity; endogenous in cells; host or cells: Rat basophilic leukemia (RBL) cells, 10,000×g supernatant of the sonicate (crude, not purified)
# T1 sequence (P12527 1-673): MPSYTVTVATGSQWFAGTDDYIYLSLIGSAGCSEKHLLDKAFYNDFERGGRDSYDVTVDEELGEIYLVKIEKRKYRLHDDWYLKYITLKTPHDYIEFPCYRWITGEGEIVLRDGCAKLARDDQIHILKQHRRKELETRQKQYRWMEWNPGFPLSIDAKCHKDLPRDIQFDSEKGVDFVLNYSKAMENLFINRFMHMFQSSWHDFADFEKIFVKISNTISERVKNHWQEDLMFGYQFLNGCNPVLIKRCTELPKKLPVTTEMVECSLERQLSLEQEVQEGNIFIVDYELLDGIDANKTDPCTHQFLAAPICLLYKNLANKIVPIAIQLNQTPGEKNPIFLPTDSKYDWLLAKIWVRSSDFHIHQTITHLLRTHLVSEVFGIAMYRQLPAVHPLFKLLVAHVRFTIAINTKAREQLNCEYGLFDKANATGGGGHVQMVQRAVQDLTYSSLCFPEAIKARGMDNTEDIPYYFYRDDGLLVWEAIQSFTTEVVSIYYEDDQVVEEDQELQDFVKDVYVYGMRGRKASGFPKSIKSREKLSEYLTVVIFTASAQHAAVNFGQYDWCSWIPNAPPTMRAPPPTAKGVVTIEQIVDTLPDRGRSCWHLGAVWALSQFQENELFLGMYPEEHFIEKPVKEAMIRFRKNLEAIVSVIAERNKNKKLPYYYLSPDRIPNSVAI
inhibition (5-lipoxygenase) [%],SMILES,inhibition in vivo at 10 mg/kg [1] [%]
94,CC(C(=O)c1ccc(Br)cc1)n1ncn(-c2ccc(N3CCN(c4ccc(O)cc4)CC3)cc2)c1=O (centres unmarked) [Compound 7.16],91
66,CC(C(=O)c1ccc(F)cc1)n1ncn(-c2ccc(N3CCN(c4ccc(O)cc4)CC3)cc2)c1=O (centres unmarked) [Compound 7.14],70
100,CC(C(O)c1ccc(Br)cc1)n1ncn(-c2ccc(N3CCN(c4ccc(O)cc4)CC3)cc2)c1=O (centres unmarked) [Compound 7.35],79
58,CCCn1c(=O)n(CCC)c(=O)n(-c2ccc(N3CCN(c4ccc(O)cc4)CC3)cc2)c1=O [Compound 9.03],94
